# Measured values from PubChem BioAssay (NCI).
#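 Five concentrations, 48 hours, 96-well plates. Here, GI50 denotes the concentration required for 50% inhibition of growth. TGI denotes the concentration required for complete inhibition of growth.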
# Key:
# Test in all cases: inhibition of tumour cell growth, NCI panel, 48 h
# RPMI-8226 leukemia = tested on: RPMI-8226 leukemia
# A549 NSCLC = tested on: A549 NSCLC
# K-562 leukemia = tested on: K-562 leukemia
# HOP-92 NSCLC = tested on: HOP-92 NSCLC
# SW-620 colon = tested on: SW-620 colon
# CCRF-CEM leukemia = tested on: CCRF-CEM leukemia
# SK-MEL-5 melanoma = tested on: SK-MEL-5 melanoma
# HT29 colon = tested on: HT29 colon
# SN12C renal = tested on: SN12C renal
# ACHN renal = tested on: ACHN renal
Compound,GI50 (RPMI-8226 leukemia),TGI (RPMI-8226 leukemia),GI50 (A549 NSCLC),TGI (A549 NSCLC),GI50 (K-562 leukemia),TGI (K-562 leukemia),GI50 (HOP-92 NSCLC),TGI (HOP-92 NSCLC),GI50 (SW-620 colon),TGI (SW-620 colon),GI50 (CCRF-CEM leukemia),GI50 (SK-MEL-5 melanoma),TGI (SK-MEL-5 melanoma),GI50 (HT29 colon),TGI (HT29 colon),GI50 (SN12C renal),TGI (SN12C renal),GI50 (ACHN renal),TGI (CCRF-CEM leukemia),TGI (ACHN renal)
CC(=O)c1c[nH]c2ccc(-c3ccnc(Nc4ccc(NC(=O)C5CCCC5)c(CN5CCOCC5)c4)n3)cc12,0.045 µM,0.262 µM,0.0312 µM,1.54 µM,0.041 µM,> 100 µM,0.0284 µM,0.365 µM,0.0387 µM,0.551 µM,0.0294 µM,0.0246 µM,0.0685 µM,0.0226 µM,2.25 µM,0.0301 µM,3.97 µM,0.0305 µM,,
N#C/C(=C/N1CCN(C(=O)c2ccco2)C1=S)C(=O)Nc1ccc(Cl)cc1,10.5 µM,32.2 µM,25.8 µM,> 50 µM,16.1 µM,> 50 µM,21.5 µM,> 50 µM,17.3 µM,> 50 µM,22.5 µM,11.2 µM,24.7 µM,21.4 µM,> 50 µM,11.8 µM,37.2 µM,15.3 µM,> 50 µM,42.2 µM
CC(C)C[C@H](NC(=O)Cn1cccc(CNC(=O)c2ccccc2)c1=O)B(O)O,0.352 µM,,4.54 µM,> 100 µM,1.3 µM,> 100 µM,0.638 µM,4.61 µM,0.345 µM,6.85 µM,0.374 µM,0.158 µM,0.842 µM,0.352 µM,11.5 µM,0.811 µM,11.3 µM,0.626 µM,> 20.1 µM,> 100 µM
CCCCCCCCCCCNC=O,,78.7 µM,,> 100 µM,,86.1 µM,,> 100 µM,,> 100 µM,,,92 µM,,> 100 µM,,> 100 µM,,> 100 µM,> 100 µM
Cc1ccc(S(=O)(=O)n2cc([C@@]3(O)C[C@H](CSC#N)OC3=O)c3ccccc32)cc1,2.75 µM,40.1 µM,29.2 µM,> 100 µM,6.2 µM,23.6 µM,23.9 µM,71.3 µM,5.98 µM,19.5 µM,3.17 µM,2.44 µM,19.8 µM,11.9 µM,55 µM,7.97 µM,24.9 µM,11.2 µM,25.2 µM,27.1 µM
CC(=O)OCC1OC(n2c(=O)[nH]c(=O)c3n[nH]nc32)C(OC(C)=O)C(OC(C)=O)C1OC(C)=O (stereo unspecified),,> 100 µM,,> 100 µM,,> 100 µM,,> 100 µM,,> 100 µM,,,> 100 µM,,> 100 µM,,> 100 µM,,> 100 µM,> 100 µM
C=C(C(=O)OC)[C@@H]1CC2OC1C(=O)C(C)CCC/C(C)=C/CC[C@@]2(C)O (stereo partly specified),16.8 µM,61.2 µM,20.1 µM,46 µM,18.9 µM,43.4 µM,23.8 µM,95.2 µM,15 µM,30.1 µM,11 µM,37 µM,> 100 µM,36.5 µM,> 100 µM,31.3 µM,91.5 µM,18.6 µM,36.1 µM,42.6 µM
COc1ccc(CSC2=C(C#N)C(=O)NC3(CCCCC3)S2)cc1,,> 100 µM,,> 100 µM,,> 100 µM,,> 100 µM,,> 100 µM,,,> 100 µM,,> 100 µM,,> 100 µM,,24.7 µM,> 100 µM
COc1c(OC)c(OC)c2c(=O)cc(-c3ccc(OC(C)C)cc3)oc2c1OC,,23.7 µM,,> 51.1 µM,,> 100 µM,,23.4 µM,,> 58.8 µM,,,25.5 µM,,> 49.4 µM,,> 53.4 µM,,> 68.5 µM,> 55.8 µM
COc1ccc2nc(C)cc(Sc3nc4ccccc4s3)c2c1,0.362 µM,2.16 µM,2.21 µM,14.2 µM,1.21 µM,,0.475 µM,6.25 µM,1.51 µM,2.98 µM,0.377 µM,2.88 µM,13.5 µM,1.89 µM,7.71 µM,1.7 µM,7.06 µM,1.21 µM,2.65 µM,5.77 µM
Cc1cc(=O)[nH]c(NNC(C#N)c2ccccc2O)n1 (stereo unspecified),,> 100 µM,,> 100 µM,,> 100 µM,,> 100 µM,,> 100 µM,,,75.9 µM,,> 100 µM,,> 100 µM,,> 100 µM,90.8 µM
Cc1cc(Cl)cc2c1NC(=O)C2(O)CC(=O)c1ccc(Br)cc1 (stereo unspecified),,> 100 µM,,> 100 µM,,> 100 µM,,> 100 µM,,> 100 µM,,,57.8 µM,,> 100 µM,,> 100 µM,,42.7 µM,> 100 µM
Brc1cc(C2OCCCO2)ccc1OCc1ccccc1,,> 100 µM,,> 100 µM,,> 100 µM,,> 100 µM,,> 100 µM,,,71.4 µM,,33.2 µM,,> 100 µM,,> 100 µM,> 100 µM
O=C(O)CSC1=NNC2(C(=O)N1)c1ccccc1-c1ccccc12,,> 10 µM,,> 10 µM,,> 10 µM,,> 10 µM,,> 10 µM,,,> 10 µM,,> 10 µM,,> 10 µM,,> 10 µM,> 10 µM
OCCCCC#Cc1ccccc1C#Cc1cccnc1,35.5 µM,> 100 µM,25.5 µM,80.2 µM,23.9 µM,71.1 µM,38.2 µM,> 100 µM,45.2 µM,> 100 µM,33.9 µM,54.8 µM,> 100 µM,22.3 µM,87.8 µM,26.9 µM,82.6 µM,28.3 µM,> 100 µM,> 100 µM
